Results on nine compounds are retold here after publication PMC6958523, “Metabolism and Pharmacokinetic Study of the Boron-Containing Prodrug of Belinostat (ZL277), a Pan HDAC Inhibitor with Enhanced Bioavailability” (Pharmaceuticals, 2019).

The nature of series [1]: Pharmacokinetics and in vivo metabolites of ZL277 in mice plasma after single IP dose. Conditions: for metabolite detected in Plasma: mice after IP injection of ZL277. As for the experimental part: (§1) Four to six-week-old female ovariectomized Nu/Nu mice (Genotype: Homozygous genotype, homozygous for Foxn1), purchased from Charles River Laboratories (Wilmington, MA, USA), were used for the study of ZL277 metabolites in vivo. Six mice in each group were given ethanol-dissolved ZL277 and belinostat, at a single dose of 10 mg/kg by intraperitoneal injection (IP). After IP administration, venous blood samples were collected at 1, 3, 6, and 24 h time points. Urine and fecal samples were collected for the time duration of 0–8 h, 8–24 h, 24–32 h, and 32–48 h after IP administration.
(§2) Plasma, urine, or feces samples were processed following protocols published previously. These samples were injected on the Hypersil GOLD C18 column (1.8 µm, 2.1 × 50 mm) with UHPLC ultimate 3000 from Dionex, coupled with a […] mass spectrometer, to quantitate the concentration of the main metabolites of ZL277. The 10 µL samples were run with the gradient starting at 0.3 mL/min from 2% mobile phase B (acetonitrile with 0.05% formic acid) and 98% mobile phase A (water with 0.05% formic acid) until 1 min, up to 30% B at 3 min, 45% B at 4.8 min, 100% B at 5.5 min, then back to 30% B until equilibration. SRM mode was used to detect ZL277 (pos 535.21→134.97), ZL277-B(OH)2-452 (neg 451.13→256.04), ZL277-424-OH (neg 423.07→317.04), belinostat (neg 317.02→245.05) or (pos 319.08→93.08), belinostat amide (pos 303.08→91.05), belinostat acid (neg 302.05→92.05), methylated belinostat (pos 333.09→239.92). The product scan in MS/MS mode was used to detect belinostat–sulfate (neg 397.02→97.02), and belinostat–glucoronate (pos 495.09→319.27). The […] was set at spray voltage at 3200 V, vaporizer temperature at 365 °C, sheath gas pressure at 33 psi, auxiliary gas pressure at 10 psi, and capillary temperature at 350 °C. Additional experimental details can be found in Figures S1 and S2, and Tables S1–S8.
Sample preparation protocols:
(1) Plasma sample preparation: Plasma samples (100 μL) were extracted with methanol.
Internal standard (10 μL 0.5 ng/μL trans-tamoxifen-13C2, 15N in methanol), methanol
(0.5 mL) were added to each plasma sample. The mixtures were stored at −20 °C
overnight. Samples were sonicated for 10 min and then centrifuged on a Heraeus Fresco

The nature of series [2]: Drug and metabolite concentrations in MCF-7 xenograft breast tumor tissues of treated mice. Conditions: breast tumor xenograft in mice treated with ZL277. Format: in vivo. As for the experimental part:
Four to six week old female ovariectomized Nu/Nu mice, implanted subcutaneously with 17β-Estradiol pellets, were injected with MCF-7 cells harvested in the exponential growth phase to grow the breast tumors. On day 15 after tumor formation, the mice were treated with vehicle, belinostat, at 10 mg/kg/day, or ZL277 at 10 mg/kg/day, by subcutaneous injection. On the last day of the study, the tumors were collected and frozen for analysis.
as §2

Series [3] is described as follows: Metabolites of ZL277 in urine and fecal samples from treated mice. Format: in vivo. Conditions: for metabolite detected in Urine: mice after IP injection of ZL277; for relative abundance among metabolites in feces / relative abundance among metabolites in urine: mice treated with ZL277. As for the experimental part:
as §1, §2
Sample preparation protocols: […]
(2) Feces sample preparation: The collected feces samples were weighed on an OHAUS Explorer balance. The internal standard of trans-tamoxifen-13C2,15N (0.5 ng/μL in methanol) was added to the feces samples based on 10 ng/g feces according to the weight of the feces collected. Methanol was added at the ratio of 4 mL/g feces. Then the samples were homogenized with a Power Gen 125 homogenizer (Fisher Scientific) and stored at - 20 °C overnight. After sonicating for 30 min, the samples were centrifuged with a Heraeus Megafuge16R centrifuge at 3000 RPM. The supernatant was dried at room temperature and resuspended with corresponding amount of methanol (200 μL methanol/g feces) for injection on the TSQ Vantage instrument.
(3) Urine sample preparation: Urine samples were thawed at room temperature and vortexed. 200 μL of the sample was transferred to a 1.5 mL Eppendorf microcentrifuge tube followed by adding 200 μL methanol and 10 μL of the 0.5 ng/μL trans-tamoxifen-13C2, 15N in methanol solution. After Vortaxing and centrifuging, the top supernatant was injected on the UPLC-TSQ Vantage mass spectrometer instrument for analysis.

Another series concerns MCF-7 tumor xenograft. Details: method as in PMID 29456804. Conditions: mice; cited from earlier work.
A short description of series [4]: In vitro sulfation of ZL277 in liver cytosol with PAPS. Conditions: rat liver cytosol, 30 min. Format: in vitro ADME. As for the experimental part: The incubation of ZL277 with liver cytosols followed a similar procedure to the study of sulfation of ZB716 [23]. After termination of incubation with 300 µL MeOH, the final mixture was centrifuged. The supernatant was analyzed on the UHPLC-Q-Exactive instrument.
(§3) The samples from in vitro incubations were run on a Hypersil GOLD C18 column (1.8 µm, 2.1 × 50 mm) with UHPLC ultimate 3000 from Dionex coupled with one Q-Exactive HR mass spectrometer (Thermo Scientific, Waltham, MA, USA). The gradient started at 20% mobile phase B (Acetonitrile with 0.05% formic acid) and 80% mobile phase A (water with 0.05% formic acid), increased to 100% B in 4.5 min at 0.3 mL/min, stayed for 5 min, then came back to 30% B until equilibration. PRM mode or full scan mode was used to identify the interested metabolites.

Series [5] can be described thus: In vitro metabolism of ZL277 in liver S9 fraction with NADPH. Format: in vitro ADME. Conditions: rat liver S9, NADPH, 1 h. As for the experimental part:
The incubation of ZL277 with liver S9 fractions followed the procedures of incubation with liver microsomes, as described previously. The pre-incubation solution consisted of 30 µL of potassium phosphate buffer (pH 7.4; 10X), 241.5 µL water, 15 µL of NADPH solution A, 3 µL of NADPH solution B, 7.5 µL rat liver S9 fractions. After incubation at 37 °C for 5 min in a 1.5 mL microcentrifuge vial, 3 µL of 10 mM ZL277 was added, mixed, and incubated at 37 °C for another 60 min in the incubator. Then, 300 µL MeOH was added to terminate the reaction. After centrifugation, the supernatant was analyzed on the UHPLC, coupled to a Q-Exactive high-resolution mass spectrometer.
as §3

The test system of a further series is MDA-MB-231. More on the design: method as in PMID 29456804. Conditions: cited from earlier work.
The subject of the next series is MCF-7. More on the design: method as in PMID 29456804. Conditions: cited from earlier work.

Regarding `O=C(O)/C=C/c1cccc(S(=O)(=O)Nc2ccccc2)c1` [Belinostat acid, belinostat acid], the “metabolite detected in Plasma” value in series [1] is on record as “detected”. Besides, the “metabolite detected in Tumor” value in series [2] is listed as “found”. For the same compound, in series [3], the “metabolite detected in Urine” value was “detected”, the “relative abundance among metabolites in feces” value is “dominantly” and the “relative abundance among metabolites in urine” value is on record as “dominant components”.
`NC(=O)/C=C/c1cccc(S(=O)(=O)Nc2ccccc2)c1` [Belinostat amide, belinostat amide]: in series [1], the “metabolite detected in Plasma” value is recorded as “detected”. Further, the “metabolite detected in Tumor” value in series [2] was “found”. Further, the “metabolite detected in Urine” value in series [3] is reported as “detected”.
Turning to `O=C(/C=C/c1cccc(S(=O)(=O)Nc2ccccc2)c1)NO` [Belinostat, belinostat], the “metabolite detected in Plasma” value in series [1] is “detected”. In series [2], the “metabolite detected in Tumor” value is “found”. Also, in series [3], the “metabolite detected in Urine” value is “detected”, the “relative abundance among metabolites in feces” value is “major metabolites” and the “relative abundance among metabolites in urine” value is recorded as “major components”. Moreover, in the series with MCF-7 tumor xenograft, the “effect on growth of MCF-7 tumor xenograft” value is “only inhibited tumor growth”.
Consider `O=C(/C=C/c1cccc(S(=O)(=O)Nc2ccccc2)c1)NOS(=O)(=O)O` [Belinostat–sulfate], for which the “sulfate conjugate found after incubation of ZL277” value in series [4] was “No peak”.
Regarding `CONC(=O)/C=C/c1cccc(S(=O)(=O)Nc2ccccc2)c1` [Methylated belinostat, methylated belinostat], the “metabolite detected in Plasma” value in series [1] is “detected”. In addition, the “metabolite detected in Tumor” value in series [2] was “found”. Further, the “metabolite detected in Urine” value in series [3] was “detected”.
In the case of `O=C(/C=C/c1cccc(S(=O)(=O)Nc2ccccc2)c1)NOCc1ccc(B(O)O)cc1` [ZL277-B(OH)2-452], the “relative abundance among drug-related forms in plasma” value in series [1] (mice treated with ZL277) is on record as “predominant form”. Moreover, in series [3], the “relative abundance among metabolites in feces” value is on record as “major metabolites” and the “relative abundance among metabolites in urine” value is on record as “major components”.
On to `O=C(/C=C/c1cccc(S(=O)(=O)Nc2ccccc2)c1)NOCc1ccc(OS(=O)(=O)O)cc1` [ZL277-OH-424-sufate], for which the “sulfate conjugate found after incubation of ZL277” value in series [4] is listed as “detected”.
As to `O=C(/C=C/c1cccc(S(=O)(=O)Nc2ccccc2)c1)NOCc1ccc(O)cc1` [ZL277-OH-424], in series [3], the “relative abundance among metabolites in feces” value is reported as “major metabolites” and the “relative abundance among metabolites in urine” value was “major components”. In addition, in series [5], the “metabolite found after incubation of ZL277 with liver S9 fraction” value is given as “major oxidative metabolite”.
Consider `CC1(C)OB(c2ccc(CONC(=O)/C=C/c3cccc(S(=O)(=O)Nc4ccccc4)c3)cc2)OC1(C)C` [ZL277], for which the “bioavailability compared to belinostat” value in series [1] (mice, 10 mg/kg IP) is listed as “superior”. The “metabolite found after incubation of ZL277 with liver S9 fraction” value in series [5] is reported as “not found”. For the same compound, the “antiproliferative activity compared with belinostat” value in the series with MDA-MB-231 and in the series on MCF-7 was “slightly weaker” each time. Further, in the series on MCF-7 tumor xenograft, the “effect on growth of MCF-7 tumor xenograft” value is reported as “caused tumor regression”.
